One molecule from publication PMC12817916, “A small-molecule HSP90 inhibitor, NVP-HSP990, alleviates rotavirus infection” (Journal of Virology, 2025) can be followed below.

Where two headings read alike, the source gives them in different places.

For one test, the system named is RV Wa (G1P[8]) strain. Kind of test: In vitro assay of RV replication inhibition (PFA). It counts as cell-based, Rotavirus. The conditions noted are these: MOI = 1, 24 h p.i., PFA, read-out: IC50. Here is the method: For analysis of effects of different […] on RV replication in vitro, 10,000 MA104 cells, 30,000 Caco-2 cells, and 80,000 HT-29 cells in 100 µL complete DMEM medium were seeded in 96-well plates and cultured at 37°C and 5% CO2 for 24 h. Then the cells were infected with RV Wa or SA11 strains (MOI = 1 (PFU/cell)) for 1 h. After removing the viruses and washing cells two times with DMEM, 100 µL DMEM containing the indicated concentrations of drugs was added to each well, and the plates were incubated at 37°C and 5% CO2. At 24 h p.i., the infected cells and culture medium were collected, frozen/thawed twice, and subjected to centrifugation at 1,000 × g for 3 min at room temperature. Then, the supernatant was subjected to analysis of viral load by PFA. […] Dose-response data (drug concentrations as x-axis and normalized inhibition percentages as y-axis) were fitted to a dose-response inhibition model ([Inhibitor] vs normalized response – Variable slope). […] Model adequacy was validated using goodness-of-fit metrics (R^2 ≥ 0.95), 95% confidence intervals, and residual distribution analysis.
Wa/SA11 strains were titrated by PFA, which was carried out as described (3) with some modification. Briefly, confluent monolayers of MA104 cells in 24-well tissue culture plates were infected with 100 µL supernatants containing infectious RV particles which were serially diluted (10^1, 10^2, 10^3, and 10^4) with DMEM containing 1 µg/mL trypsin and penicillin (10,000 U/mL)-streptomycin (5 µg/mL) (DMEM-T) for 1 h at 37°C. Then 400 µL agarose overlay (0.8% agarose in 1×DMEM-T) was added and the plates were incubated at 37℃ and 5% CO2 for 5 days. The cells in each well were fixed by 1 mL 4% paraformaldehyde (Sangon Biotech, China) overnight (> 12 h) at room temperature. Then, the paraformaldehyde and agarose were removed and the monolayers were stained with 0.5 ml of a 1% (v/v) crystal violet (Sangon Biotech, China) diluted in distilled water for 10 min at room temperature. Then, the plates were drained and dried, and the plaques were enumerated. As the EDIM strain is not able to grow in cell culture, it was titrated by qPCR analysis as described (4) with EDIM VP6 gene as the target.

Test [1] relates to tight junctions (ZO-1, ZO-2, claudin-1) in Caco-2 cells. Kind of test: Tight junction-associated proteins and structure (WB, IFA). It counts as cell-based, Human. The conditions noted are these: Wa or SA11 MOI = 3, 100 nM. How it is done:
The cells were then washed with PBS, fixed in 4% paraformaldehyde for 20 min, followed by permeabilization in 0.5% Triton X-100 for 10 min and blocking with 5% BSA (Beyotime, China) for 1 h at room temperature. The cells were then incubated with rabbit anti-ZO-1 monoclonal antibody (CST, USA) (1:100) or rabbit anti-RV VP6 polyclonal antibodies (CUSABIO, China) (1:50) for 2 h at room temperature, washed twice with PBS, and incubated with Cy3-conjugated goat anti-rabbit antibodies (Beyotime, China) (1:500) for 1 h at room temperature. In some experiments, the cells were also stained with FITC-conjugated goat anti-RV antibodies (Virostat, USA) (1:100) for 1 h at room temperature and followed by 5 µg/mL 2-(4-amidinophenyl)-6-indolecarbamidine dihydrochloride (DAPI) (Sigma-Aldrich, USA) staining for 10 min. […] Minimal post-processing (image cropping and annotations) was applied through Adobe Illustrator 2019 (Adobe Systems, USA) to ensure readability. […]
MA104, Caco-2, and HT-29 cells were mock-infected with PBS, infected with RV Wa or SA11 strains (MOI = 3), or treated with 1 µM C16-PAF (C16) for 1 h. […] After protein quantification with a BCA kit (Beyotime, China), the protein samples were mixed with 25 µL 5× SDS loading buffer (Beyotime, China), boiled at 100°C for 5 min, chilled on ice, vortexed for seconds, and centrifuged at 12,000 × g for 3 min at room temperature. […]

The IC50 is the midpoint of a concentration-inhibition curve. For `COc1cccc(-c2cc(F)ccc2[C@H]2Cc3nc(N)nc(C)c3C(=O)N2)n1` [NVP-HSP990], the IC50 in the test with RV Wa (G1P[8]) strain (Wa strain in Caco-2 cells) was 4 ± 1.28 nM; in the test on RV Wa (G1P[8]) strain (Wa strain in HT-29 cells) it was 4.69 ± 0.9 nM; in the test on RV Wa (G1P[8]) strain (Wa strain in MA104 cells) it was 0.96 ± 0.13 nM. Further, in test [1] (18 h, ZO-1 immunostaining), the “structural disruption of tight junctions in RV infection” value was “effectively restored”. Moreover, the “expression of tight junction-associated proteins ZO-1, ZO-2, and claudin-1” value in test [1] (20 h, WB) is “facilitated the expression”.
